Data from ChEMBL document CHEMBL4699579, “A Peptidyl Inhibitor that Blocks Calcineurin-NFAT Interaction and Prevents Acute Lung Injury” (J Med Chem, 2020).
Calls of active or inactive are those of the source. The calls are words filed in the database; no cut-off is given here. Positions of bridges follow the written chain, without caps; N, C: chain ends. Non-standard residues stand in square brackets, D forms with d. Residues, ends and D or L forms follow the SMILES beside them. Chains are numbered I, II in the order given. *: point of attachment. 2Nal = N[C@@H](Cc1ccc2ccccc2c1)C(=O)O; Val(3-OH) = CC(C)(O)[C@H](N)C(=O)O; Tle = CC(C)(C)[C@H](N)C(=O)O; X1 = O=C(c1ccnc(Cl)c1Cl)*; AEEA = NCCOCCOCC(=O)O

Legend:
[1] = Drug distribution in BALB/c mouse neutrophils at […], ip using compound labelled with cyanine-5 measured after 24 hrs by flow cytometry; format: ADME, organism-based, Neutrophil; settings: in vivo, dose 2.4 mg/kg
[2] = Drug distribution in BALB/c mouse neutrophils at 0.6 mg/kg, iv using compound labelled with cyanine-5 measured after 24 hrs by flow cytometry; format: ADME, organism-based, Neutrophil; settings: in vivo
[3] = Drug distribution in BALB/c mouse kidney at […], ip using compound labelled with cyanine-5 measured after 24 hrs by fluorescence based assay; format: ADME, organism-based; settings: in vivo, dose 2.4 mg/kg
Mus musculus [4] = experiment: Anti-inflammatory activity in BALB/c mouse model of LPS-induced ALI assessed as reduction in LPS-induced BALF protein levels at 5 mg/kg, iv pre-treated 4 hrs before LPS stimulation for 16 hrs; format: functional, organism-based; settings: time 20.0 hrs
[5] = Drug distribution in BALB/c mouse spleen at […], ip using compound labelled with cyanine-5 measured after 24 hrs by fluorescence based assay; format: ADME, organism-based; settings: in vivo, dose 2.4 mg/kg
[6] = Drug metabolism in BALB/c mouse spleen at 5 mg/kg, iv after 8 hrs by LC-MS/MS analysis; format: ADME, organism-based; settings: in vivo
Mus musculus [7] = experiment: Anti-inflammatory activity in BALB/c mouse model of LPS-induced ALI assessed as reduction in LPS-induced lung wet-to-dry ratios at 3 mg/kg dosed via intranasal instillation pre-treated 2 hrs before LPS stimulation for 6 hrs and measured at 24 hrs; format: functional, organism-based
[8] = Drug distribution in BALB/c mouse lymph nodes at […], sc using compound labelled with cyanine-5 measured after 24 hrs by fluorescence based assay; format: ADME, organism-based, Lymph node; settings: dose 2.4 mg/kg, read-out: Drug uptake
[9] = Drug distribution in BALB/c mouse spleen at 0.6 mg/kg, iv using compound labelled with cyanine-5 measured after 24 hrs by fluorescence based assay; format: ADME, organism-based; settings: in vivo
[10] = Stability in simulated intestinal fluid at 5 uM incubated for 2 hrs by LC/MS/MS analysis
Mus musculus [11] = experiment: Anti-inflammatory activity in BALB/c mouse model of LPS-induced ALI assessed as reduction in LPS-induced lung wet-to-dry ratios at 5 mg/kg, iv pre-treated 4 hrs before LPS stimulation for 16 hrs; format: functional, organism-based; settings: time 20.0 hrs
[12] = Stability in mouse liver microsomes assessed as compound degradation at 100 uM incubated up to 60 mins in presence of NADPH by LC-MS/MS analysis; format: ADME, Microsome; settings: 1 h, TDE = time-dependent effect
[13] = Drug distribution in BALB/c mouse muscle at 0.6 mg/kg, iv using compound labelled with cyanine-5 measured after 24 hrs by fluorescence based assay; format: ADME, organism-based, Muscle tissue; settings: in vivo
[14] = Drug distribution in BALB/c mouse lung at […], ip using compound labelled with cyanine-5 measured after 24 hrs by fluorescence based assay; format: ADME, organism-based; settings: dose 2.4 mg/kg, read-out: Drug uptake
[15] = Clearance in C57BL/6 mouse assessed as clearance time at 5 mg/kg using TMR-labeled compound instilled into both nostrils by flow cytometry; format: ADME, organism-based; settings: in vivo, inhaled_or_intranasal
[16] = Drug distribution in BALB/c mouse heart at […], ip using compound labelled with cyanine-5 measured after 24 hrs by fluorescence based assay; format: ADME, organism-based; settings: dose 2.4 mg/kg, read-out: Drug uptake
[17] = Stability in 25% human serum assessed as compound degradation at 5 uM at 37 degC incubated for 24 hrs by HPLC analysis; format: ADME, cell-free; settings: serum, 24 h, 5 µM
[18] = Drug distribution in BALB/c mouse lymph nodes at 0.6 mg/kg, iv using compound labelled with cyanine-5 measured after 24 hrs by fluorescence based assay; format: ADME, organism-based, Lymph node; settings: read-out: Drug uptake
Mus musculus [19] = experiment: Anti-inflammatory activity in BALB/c mouse model of LPS-induced ALI assessed as reduction in LPS-induced TNFalpha in BALF at 0.3 to 3 mg/kg dosed via intranasal instillation pre-treated 2 hrs before LPS stimulation for 6 hrs; format: functional
[20] = Drug distribution in BALB/c mouse pancreas at […], sc using compound labelled with cyanine-5 measured after 24 hrs by fluorescence based assay; format: ADME, organism-based; settings: dose 2.4 mg/kg, read-out: Drug uptake
[21] = Drug metabolism in BALB/c mouse kidney at 5 mg/kg, iv after 8 hrs by LC-MS/MS analysis; format: ADME, organism-based; settings: in vivo
[22] = Plasma concentration in BALB/c mouse at 5 mg/kg, iv after 2 to 4 hrs by LC-MS/MS analysis; format: ADME, organism-based; settings: in vivo, time 2-4 hrs
[23] = Drug concentration in BALB/c mouse spleen at 5 mg/kg, iv after 8 hrs by LC-MS/MS analysis; format: ADME, organism-based; settings: read-out: Drug uptake
[24] = Drug distribution in BALB/c mouse liver at […], sc using compound labelled with cyanine-5 measured after 24 hrs by fluorescence based assay; format: ADME, organism-based; settings: in vivo, dose 2.4 mg/kg
Mus musculus [25] = experiment: Anti-inflammatory activity in BALB/c mouse model of LPS-induced ALI assessed as reduction in LPS-induced TNFalpha in BALF at 5 mg/kg, iv pre-treated 4 hrs before LPS stimulation for 16 hrs; format: functional, organism-based; settings: time 20.0 hrs
[26] = Drug distribution in BALB/c mouse lung at 0.6 mg/kg, iv using compound labelled with cyanine-5 measured after 24 hrs by fluorescence based assay; format: ADME, organism-based; settings: read-out: Drug uptake
Mus musculus [27] = experiment: Anti-inflammatory activity in BALB/c mouse model of LPS-induced ALI assessed as reduction in LPS-induced BALF protein levels at 0.3 to 3 mg/kg dosed via intranasal instillation pre-treated 2 hrs before LPS stimulation for 6 hrs; format: functional
[28] = Drug distribution in BALB/c mouse plasma at […], sc using compound labelled with cyanine-5 measured after 24 hrs by fluorescence based assay; format: ADME, organism-based; settings: in vivo, dose 2.4 mg/kg
[29] = Drug concentration in BALB/c mouse brain at 5 mg/kg, iv after 8 hrs by LC-MS/MS analysis; format: ADME, organism-based; settings: in vivo
Macrophage [30] = experiment: Inhibition of calcineurin-NFATc3 interaction in mouse lung macrophages assessed as reduction in LPS-induced IL6 production at 1 uM pre-incubated 4 hrs before LPS stimulation for 8 hrs by ELISA relative to 10 uM CsA; format: tissue-based; settings: time 12.0 hrs
Macrophage [31] = experiment: Inhibition of calcineurin-NFATc3 interaction in mouse lung macrophages assessed as reduction in LPS-induced TNFalpha production at 0.1 to 10 uM pre-incubated 4 hrs before LPS stimulation for 8 hrs by ELISA; format: tissue-based; settings: DISRUPTING AGENT, dose microM 0.1-10, time 12.0 hrs
Macrophage [32] = experiment: Inhibition of calcineurin-NFATc3 interaction in mouse lung macrophages assessed as reduction in LPS-induced IL6 production at 0.1 to 10 uM pre-incubated 4 hrs before LPS stimulation for 8 hrs by ELISA; format: tissue-based; settings: DISRUPTING AGENT, dose microM 0.1-10, time 12.0 hrs
[33] = Stability in mouse liver microsomes assessed as compound degradation at 100 uM after 1 hr in presence of NADPH by LC-MS/MS analysis; format: ADME, Microsome; settings: read-out: Drug degradation
[34] = Stability in mouse hepatocytes at 2 uM incubated up to 90 mins by LC/MS/MS analysis; format: ADME, cell-based, Hepatocyte
Homo sapiens = species on record: Homo sapiens; experiment: Inhibition of GST-tagged Calcineurin (unknown origin) assessed as reduction in phosphatase activity at 50 uM incubated for 30 mins using p-nitrophenyl phosphate substrate
[35] = Drug distribution in BALB/c mouse spleen at […], sc using compound labelled with cyanine-5 measured after 24 hrs by fluorescence based assay; format: ADME, organism-based; settings: in vivo, dose 2.4 mg/kg
[36] = dose mg/kg 0.3-3, time 8 hrs, read-out: MED

- Drug uptake [1]: Active
- Drug uptake [2]: Active
- Drug uptake [3]: Active
- Drug uptake [5]: Active
- Drug metabolism [6]: Metabolite_Detected
- concentration at 24 h [8]: > 50 nM
- Drug uptake [9]: Active
- Drug degradation [12]: Tde
- Drug uptake [13]: Not Active
- concentration at 24 h [14]: > 50 nM
- CL [15]: 16 h
- concentration at 24 h [16]: > 50 nM
- Stabilty [17]: Stable
- concentration at 24 h [18]: > 50 nM
- concentration at 24 h [20]: > 50 nM
- Drug metabolism [21]: Metabolite_Detected
- concentration [22]: < 5 nM
- concentration at 8 h [23]: 15 nM
- Drug uptake [24]: Active
- concentration at 24 h [26]: > 50 nM
- Drug uptake [28]: Not Active
- Drug uptake [29]: Not Active
- metabolised at 1 h, 100 µM [33]: ≤ 25%
- Stabilty [34]: Stable
- inhibition (Homo sapiens): inactive
- Drug uptake [35]: Active
Structure (SMILES): CC[C@H](C)[C@H](NC(=O)[C@@H](NC(=O)c1ccnc(Cl)c1Cl)C(C)(C)C)C(=O)N[C@H](C(=O)N[C@H](C(=O)N[C@H](C(=O)N[C@@H](CCC(N)=O)C(=O)N[C@@H](Cc1c[nH]cn1)C(=O)N[C@H](CC(C)C)C(=O)N[C@@H](CO)C(=O)NCCOCCOCC(=O)N[C@@H](CCCCNC(=O)CC[C@@H]1NC(=O)[C@@H](CCCNC(=N)N)NC(=O)[C@H](CCCNC(=N)N)NC(=O)[C@@H](CCCNC(=N)N)NC(=O)[C@H](CCCNC(=N)N)NC(=O)[C@H](Cc2ccc3ccccc3c2)NC(=O)[C@@H](Cc2ccccc2)NC1=O)C(N)=O)[C@@H](C)O)[C@@H](C)CC)C(C)(C)O (I: X1-[Tle]I[Val(3-OH)]ITQH[dL]S[AEEA]K-NH2 / II: cyclo([2Nal]R[dR]R[dR]E[dF]); amide I:11-II:6)
- Activity (Mus musculus [4]): Active
- Activity (Mus musculus [7]): inactive
- Stability [10]: Stable
- Activity (Mus musculus [11]): Active
- Activity (Mus musculus [19]; dose mg/kg 0.3-3, time 8.0 hrs): Dose-dependent effect
- minimal effective dose (Mus musculus [19]; [36]): 1 mg/kg
- Activity (Mus musculus [25]): Active
- Activity (Mus musculus [27]; dose mg/kg 0.3-3, time 8.0 hrs): Dose-dependent effect
- minimal effective dose (Mus musculus [27]; [36]): 1 mg/kg
- fold change (FC) (Macrophage [30]): 10
- inhibition (Macrophage [31]): Dose-dependent effect
- inhibition (Macrophage [32]): Dose-dependent effect
